Consider 40 compounds from patent US8546563B2, “Compounds which modulate the CB2 receptor” (Boehringer Ingelheim International GmbH, priority 2007, dated 2013).

pEC50: −log10 of the molar value.

This assay deals with T1, human CB2R (Homo sapiens, UniProt P34972).
T1 construct: host or cells: CHO cells
T1 sequence (P34972 whole entry): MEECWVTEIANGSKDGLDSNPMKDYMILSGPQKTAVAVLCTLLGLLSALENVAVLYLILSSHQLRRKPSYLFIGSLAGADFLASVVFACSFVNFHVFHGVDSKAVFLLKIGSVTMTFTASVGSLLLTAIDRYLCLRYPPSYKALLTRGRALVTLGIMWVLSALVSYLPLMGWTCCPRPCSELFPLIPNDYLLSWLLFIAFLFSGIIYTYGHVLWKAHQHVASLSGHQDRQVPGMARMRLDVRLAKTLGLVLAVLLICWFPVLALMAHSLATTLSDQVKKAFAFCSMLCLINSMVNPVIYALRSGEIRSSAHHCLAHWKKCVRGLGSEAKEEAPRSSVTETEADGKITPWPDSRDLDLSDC
Briefly: CB2R mediated modulation of cAMP synthesis. It counts as cell-based. Conditions: CHO cells expressing human CB2R; inhibition of forskolin-stimulated cAMP synthesis (agonist); read-out: CB2 EC50. The method, then:
B. CB2R Mediated Modulation of cAMP Synthesis:
Compounds of the invention were evaluated for their CB2 agonist or inverse agonistic activity in accordance with the following experimental method.
CHO cells expressing human CB2R (Euroscreen) were plated at a density of 5000 cells per well in 384 well plates and incubated overnight at 37° C. After removing the media, the cells were treated with test compounds diluted in stimulation buffer containing 1 mM IBMX, 0.25% BSA and 10 uM Forskolin. The assay was incubated for 30 minutes at 37° C. Cells were lysed and the cAMP concentration was measured using DiscoverX-XS cAMP kit, following the manufacturer's protocol. In this setting, agonists will decrease forskolin induced production of cAMP while inverse agonists will further increase forskolin induced production of cAMP. EC50 of agonists were calculated as follows. The maximal amount of cAMP produced by forskolin compared to the level of cAMP inhibited by 1 uM CP55940 is defined as 100%. The EC50 value of each test compound was determined as the concentration at which 50% of the forskolin-stimulated cAMP synthesis was inhibited. Data was analyzed using a four-parameter logistic model. (Model 205 of XLfit 4.0).
With `CC(C)(C)c1cccc(NC(=O)C(C)(C)S(=O)(=O)N2CCC2)c1` [Example 65, 2-(Azetidine-1-sulfonyl)-N-(3-tert-butyl-phenyl)-2-methyl-propionamide], the pEC50 (commonly the negative decadic logarithm of the EC50, by convention in mol/L) was 7.77.
Next, `CCCCN(C)S(=O)(=O)C(C)(C)C(=O)Nc1cc(C(C)(C)C)on1` [Example 41, N-(5-tert-Butyl-isoxazol-3-yl)-2-(butyl-methyl-sulfamoyl)-2-methyl-propionamide]: 8.77; `CC(C)(C(=O)Nc1nc2ccccc2s1)S(=O)(=O)N1CCC1` [Example 50, 2-(Azetidine-1-sulfonyl)-N-benzothiazol-2-yl-2-methyl-propionamide]: 7.59; `CC(C)(C)c1cc(NC(=O)C(C)(C)S(=O)(=O)N2CCC(F)C2)sn1` (stereo not shown): 7.08.
Next, `CC(C)(C(=O)Nc1ccc(C(F)(F)F)cc1F)S(=O)(=O)N1CCC1`: 7.07.
On to `CC(C)(C)c1cc(NC(=O)C(C)(C)S(=O)(=O)N2CCCC2)no1` [Example 6, N-(5-tert-Butyl-isoxazol-3-yl)-2-methyl-2-(pyrrolidine-1-sulfonyl)-propionamide], for which the pEC50 was 8.89.
Next, `CC(C)(C(=O)Nc1nc(-c2ccc(F)cc2)cs1)S(=O)(=O)N1CCC1`: 7.72; `CC(C)(C)c1cc(NC(=O)C(C)(C)S(=O)(=O)NC2CCCC2)no1` [Example 10, N-(5-tert-Butyl-isoxazol-3-yl)-2-cyclopentylsulfamoyl-2-methyl-propionamide]: 7.89; `CC(C)(C(=O)Nc1nsc(-c2ccccc2)n1)S(=O)(=O)N1CCC1`: 7.14.
Under `CC(C)(C(=O)Nc1nc(-c2cccs2)cs1)S(=O)(=O)N1CCC1` [Example 53, 2-(Azetidine-1-sulfonyl)-2-methyl-N-(4-thiophen-2-yl-thiazol-2-yl)-propionamide] stands 7.39; under `CC(C)(C)c1cc(NC(=O)C(C)(C)S(=O)(=O)N2CCC(F)(F)CC2)no1` [N-(5-tert-Butyl-isoxazol-3-yl)-2-(4,4-difluoro-piperidine-1-sulfonyl)-2-methyl-propionamide], 8.60; under `CCC(C)c1cc(NC(=O)C(C)(C)S(=O)(=O)N2CCC2)on1` (stereo not shown) [Example 73, 2-(Azetidine-1-sulfonyl)-N-(3-sec-butyl-isoxazol-5-yl)-2-methyl-propionamide], 7.85.
Under `CC(C)c1cc(NC(=O)C(C)(C)S(=O)(=O)N2CCC2)on1` [Example 74, 2-(Azetidine-1-sulfonyl)-N-(3-isopropyl-isoxazol-5-yl)-2-methyl-propionamide] stands 6.97; under `CC(C)(C)c1cc(NC(=O)C(C)(C)S(=O)(=O)N2CCC2)ccn1` [Example 82, 2-(Azetidine-1-sulfonyl)-N-(2-tert-butyl-pyridin-4-yl)-2-methyl-propionamide], 7.43; under `CC(C)(C(=O)Nc1nc(-c2ccc(Cl)cc2)cs1)S(=O)(=O)N1CCC1`, 8.05.
As for `CC(C)(C(=O)Nc1nc2c(s1)CCCC2)S(=O)(=O)N1CCC1`, the pEC50 is 7.21.
Under `CC(C)(C)c1cc(NC(=O)C(C)(C)S(=O)(=O)N2CCCCC2)no1` [Example 9, N-(5-tert-Butyl-isoxazol-3-yl)-2-methyl-2-(piperidine-1-sulfonyl)-propionamide] stands 8.19; under `Cc1sc(NC(=O)C(C)(C)S(=O)(=O)N2CCC2)nc1-c1ccc(F)cc1`, 7.77.
Next, `Cn1nc(C(C)(C)C)cc1NC(=O)C(C)(C)S(=O)(=O)N1CCOCC1`: 7.10; `CC(C)(C)c1cc(NC(=O)C(C)(C)S(=O)(=O)N2CCOCC2)no1` [Example 40]: 7.33; `CC(C)(C)c1cc(NC(=O)C(C)(C)S(=O)(=O)N2CCOCC2)on1` [Example 85, N-(3-tert-Butyl-isoxazol-5-yl)-2-methyl-2-(morpholine-4-sulfonyl)-propionamide]: 7.82.
Regarding `CC(C)(C)c1cc(NC(=O)C(C)(C)S(=O)(=O)N2CCC2)no1` [Example 5, 2-(Azetidine-1-sulfonyl)-N-(5-tert-butyl-isoxazol-3-yl)-2-methyl-propionamide], the negative-log EC50 (pEC50) was 8.44.
Next, `CC(C)(C)c1cc(NC(=O)C(C)(C)S(=O)(=O)NC2CC2)no1` [Example 7, N-(5-tert-Butyl-isoxazol-3-yl)-2-cyclopropylsulfamoyl-2-methyl-propionamide]: 7.24; `CC(C)(C(=O)Nc1nnc(-c2ccccc2)[nH]1)S(=O)(=O)N1CCC(F)C1` (stereo not shown): 8.29; `CC(C)(C(=O)Nc1nnc(-c2ccccc2)[nH]1)S(=O)(=O)N1CCOCC1`: 7.07.
Next, `CCCNS(=O)(=O)C(C)(C)C(=O)Nc1cc(C(C)(C)C)on1` [Example 35, N-(5-tert-Butyl-isoxazol-3-yl)-2-methyl-2-propylsulfamoyl-propionamide]: 7.48; `CCCCNS(=O)(=O)C(C)(C)C(=O)Nc1cc(C(C)(C)C)on1` [Example 24, N-(5-tert-Butyl-isoxazol-3-yl)-2-butylsulfamoyl-2-methyl-propionamide]: 8.00; `CCCCNS(=O)(=O)C(C)(C)C(=O)Nc1nc(C(C)(C)C)cs1` [Example 25, 2-Butylsulfamoyl-N-(4-tert-butyl-thiazol-2-yl)-2-methyl-propionamide]: 7.49.
Next, `CC(C)(C)c1cc(NC(=O)C(C)(C)S(=O)(=O)NC2CCCCC2)no1` [Example 8, N-(5-tert-Butyl-isoxazol-3-yl)-2-cyclohexylsulfamoyl-2-methyl-propionamide]: 8.62; `CC(C)(C)c1ccc(NC(=O)C(C)(C)S(=O)(=O)N2CCC2)cc1` [Example 58, 2-(Azetidine-1-sulfonyl)-N-(4-tert-butyl-phenyl)-2-methyl-propionamide]: 8.51; `CC(C)(C)c1cc(NC(=O)C(C)(C)S(=O)(=O)N2CCC2)on1` [Example 47, 2-(Azetidine-1-sulfonyl)-N-(3-tert-butyl-isoxazol-5-yl)-2-methyl-propionamide]: 7.70.
Regarding `CC(C)(C(=O)Nc1nnc(-c2ccccc2)[nH]1)S(=O)(=O)N1CCC1`, the pEC50 was 7.96.
As to `CC1CCCCN1S(=O)(=O)C(C)(C)C(=O)Nc1cc(C(C)(C)C)on1` (stereo not shown), the pEC50 is 7.01.
Next, `CCc1sc(NC(=O)C(C)(C)S(=O)(=O)N2CCC2)nc1-c1ccccc1` [Example 54, 2-(Azetidine-1-sulfonyl)-N-(5-ethyl-4-phenyl-thiazol-2-yl)-2-methyl-propionamide]: 8.18; `CC(C)(C)c1cc(NC(=O)C(C)(C)S(=O)(=O)N2CC(F)(F)C2)no1`: 8.30; `CC(C)(C)c1csc(NC(=O)C(C)(C)S(=O)(=O)N2CCC2)n1` [Example 44, 2-(Azetidine-1-sulfonyl)-N-(4-tert-butyl-thiazol-2-yl)-2-methyl-propionamide]: 7.85.
Next, `CC(C)(C)c1cc(NC(=O)C(C)(C)S(=O)(=O)N2CC[C@@H](F)C2)no1`: 8.24; `CN(c1ccccc1)S(=O)(=O)C(C)(C)C(=O)Nc1nc(C(C)(C)C)cs1` [N-(4-tert-Butyl-thiazol-2-yl)-2-methyl-2-(methyl-phenyl-sulfamoyl)-propionamide]: 7.38; `Cc1nc(NC(=O)C(C)(C)S(=O)(=O)N2CCC2)sc1C(C)(C)C`: 8.60.
Next, `CC(C)(C(=O)Nc1nc(C2CCCCC2)cs1)S(=O)(=O)N1CCC1` [Example 55, 2-(Azetidine-1-sulfonyl)-N-(4-cyclohexyl-thiazol-2-yl)-2-methyl-propionamide]: 7.66.
